Data as given in US11066445B2, “Immunomodulators acting as antagonists of PD-1” (Bristol-Myers Squibb Company, priority 2017, dated 2021).
Starred links: 1 amine or outer side, 2 acyl side, 3 side chain; linkers in the order of their positions; H or OH if unused. Positions of bridges follow the written chain, without caps; N, C: chain ends. Non-standard residues stand in square brackets, D forms with d. Residues, ends and D or L forms follow the SMILES beside them. *: point of attachment. X3 = O=C(O)CCCCCCCCCCCCCCCCC(=O)N[C@@H](CCC(=O)NCCCOCCOCCOCCCN*)C(=O)O; Trp(1-CH2CONHSO2Me) = CS(=O)(=O)NC(=O)Cn1cc(C[C@H](N)C(=O)O)c2ccccc21; X1 = O=C(O)CCCCCCCCCCCCCCC(=O)N[C@@H](CCC(=O)NCCCOCCOCCOCCCN*)C(=O)O; Trp(4-aza,1-CH2COOH) = N[C@@H](Cc1cn(CC(=O)O)c2cccnc12)C(=O)O; Trp(1-CH2CO2Me) = COC(=O)Cn1cc(C[C@H](N)C(=O)O)c2ccccc21; X6 = COc1ccc2c(c1)c(C[C@H](N[*:1])C(=O)[*:2])cn2CC(=O)O; X4 = O=C(O)Cn1nc(C[C@H](N[*:1])C(=O)[*:2])c2ccccc21; Hyp = O=C(O)[C@@H]1C[C@@H](O)CN1; NMeNle = CCCC[C@H](NC)C(=O)O; NMeA = CN[C@@H](C)C(=O)O; Dab = NCC[C@H](N)C(=O)O; Dap = NC[C@H](N)C(=O)O; Sar = CNCC(=O)O

molecular target: T1, PD-1-Ig binding to PD-L1-TVMV-His (PD-L1-His) (Homo sapiens, UniProt Q9NZQ7); test: PD-1/PD-L1 Homogenous Time-Resolved Fluorescence (HTRF) binding assay; details: PD-1-Ig (20 nM) / PD-L1-His (10 nM); numeric values; read-out: LE HTRF hPD1 hPDL1 IC50
T1 construct: hPDL1(19-239)-TVMV-His; TVMV protease cleavage site (C); made in house; host or cells: HEK293T cells
T1 sequence (Q9NZQ7 with tags, fused parts or gaps): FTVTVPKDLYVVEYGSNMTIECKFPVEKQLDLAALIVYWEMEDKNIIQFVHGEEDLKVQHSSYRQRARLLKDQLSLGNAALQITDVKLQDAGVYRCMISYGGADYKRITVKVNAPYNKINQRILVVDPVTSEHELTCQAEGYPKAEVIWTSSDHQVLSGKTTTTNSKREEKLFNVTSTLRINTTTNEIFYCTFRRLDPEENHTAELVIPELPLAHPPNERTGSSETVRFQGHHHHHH
Description: Methods for Testing the Ability of Macrocyclic Peptides to Compete for the Binding of Pd-1 to Pd-L1 Using Homogenous Time-Resolved Fluorescence (HTRF) Binding Assays
The ability of the macrocyclic peptides of the present disclosure to bind to PD-L1 was investigated using a PD-1/PD-L1 Homogenous Time-Resolved Fluorescence (HTRF) binding assay.
Homogenous Time-Resolved Fluorescence (HTRF) Assays of Binding of Soluble PD-1 to Soluble PD-L1. Soluble PD-1 and soluble PD-L1 refers to proteins with carboxyl-end truncations that remove the transmembrane-spanning regions and are fused to heterologous sequences, specifically the Fc portion of the human immunoglobuling G sequence (Ig) or the hexahistidine epitope tag (His). All binding studies were performed in an HTRF assay buffer consisting of dPBS supplemented with 0.1% (w/v) bovine serum albumin and 0.05% (v/v) Tween-20. For the PD-1-Ig/PD-L1-His binding assay, inhibitors were pre-incubated with PD-L1-His (10 nM final) for 15 m in 4 μl of assay buffer, followed by addition of PD-1-Ig (20 nM final) in 1 μl of assay buffer and further incubation for 15 m. PD-L1 fusion proteins from either human, cynomologous macaques, mouse, or other species were used. HTRF detection was achieved using europium crypate-labeled anti-Ig monoclonal antibody (1 nM final) and allophycocyanin (APC) labeled anti-His monoclonal antibody (20 nM final). Antibodies were diluted in HTRF detection buffer and 5 μl was dispensed on top of binding reaction. The reaction was allowed to equilibrate for 30 minutes and signal (665 nm/620 nm ratio) was obtained using an EnVision fluorometer. Additional binding assays were established between PD-1-Ig/PD-L2-His (20 and 5 nM, respectively), CD80-His/PD-L1-Ig (100 and 10 nM, respectively) and CD80-His/CTLA4-Ig (10 and 5 nM, respectively). Binding/competition studies between biotinylated Compound No. 71 and human PD-L1-His were performed as follows. Macrocyclic peptide inhibitors were pre-incubated with PD-L1-His (10 nM final) for 60 minutes in 4 μl of assay buffer followed by addition of biotinylated Compound No. 71 (0.5 nM final) in 1 μl of assay buffer. Binding was allowed to equilibrate for 30 minutes followed by addition of europium crypated labeled Streptavidin (2.5 pM final) and APC-labeled anti-His (20 nM final) in 5 μl of HTRF buffer. The reaction was allowed to equilibrate for 30 m and signal (665 nm/620 nm ratio) was obtained using an EnVision fluorometer.
Recombinant Proteins. Carboxyl-truncated human PD-1 (amino acids 25-167) with a C-terminal human Ig epitope tag [hPD-1 (25-167)-3S-IG] and human PD-L1 (amino acids 18-239) with a C-terminal His epitope tag [hPD-L1(19-239)-tobacco vein mottling virus protease cleavage site (TVMV)-His] were expressed in HEK293T cells and purified sequentially by recombinant Protein A affinity chromatography and size exclusion chromatography. Human PD-L2-His (Sino Biologicals), CD80-His (Sino Biologicals), CTLA4-Ig (RnD Systems) were all obtained through commercial sources.
Ranges are as follows: A=0.010-0.060 μM; B=0.0011-0.009 μM; C=0.0003-0.0010 μM.

IC50 [nM]	SMILES
0.6	CCCC[C@H]1C(=O)N(C)[C@@H](CCCC)C(=O)N[C@@H](CC(C)C)C(=O)N[C@H](C(=O)N[C@@H](Cc2cn(CCOCCOCCOCCOCCOCCOCCOCCOCCOCCOCCOCCNC(=O)CC[C@H](NC(=O)CCCCCCCCCCCCCCCCC(=O)O)C(=O)O)nn2)C(=O)O)CSCC(=O)N[C@@H](Cc2ccc(O)cc2)C(=O)N(C)[C@@H](C)C(=O)N[C@@H](CC(N)=O)C(=O)N2CCC[C@H]2C(=O)N[C@@H](CN)C(=O)N[C@@H](CC(C)C)C(=O)N2C[C@H](O)C[C@H]2C(=O)N[C@@H](Cc2c[nH]c3ccccc23)C(=O)N[C@@H](CCN)C(=O)N[C@@H](Cc2nn(CC(=O)O)c3ccccc23)C(=O)N1C [Example 22]

same assay, conditions: PD-1-Ig (20 nM) / PD-L1-His (10 nM); range classes; read-out: LE HTRF hPD1 hPDL1 IC50

IC50 [nM]	SMILES
0.3 to 1	CCCC[C@H]1C(=O)N(C)[C@@H](CCCC)C(=O)N[C@@H](CC(C)C)C(=O)N[C@H](C(=O)NCC(=O)N[C@@H](CC(=O)NCCCOCCOCCOCCCNC(=O)CC[C@H](NC(=O)CCCCCCCCCCCCCCCCC(=O)O)C(=O)O)C(=O)O)CSCC(=O)N[C@@H](Cc2ccc(O)cc2)C(=O)N(C)[C@@H](C)C(=O)N[C@@H](CC(N)=O)C(=O)N2CCC[C@H]2C(=O)N[C@@H](CN)C(=O)N[C@@H](CC(C)C)C(=O)N2C[C@H](O)C[C@H]2C(=O)N[C@@H](Cc2c[nH]c3ccccc23)C(=O)N[C@@H](CCN)C(=O)N[C@@H](Cc2cn(CC(=O)OC)c3ccccc23)C(=O)N1C [Example 9] ({CH2CO}-Y[NMeA]NP[Dap]L[Hyp]W[Dab][Trp(1-CH2CO2Me)][NMeNle][NMeNle]LCGD(X3)-OH; thioether N-14)
1.1 to 9	CCCC[C@H]1C(=O)N(C)[C@@H](CCCC)C(=O)N[C@@H](CC(C)C)C(=O)N[C@H](C(=O)NCC(=O)N[C@@H](CC(=O)NCCCOCCOCCOCCCNC(=O)CC[C@H](NC(=O)CCCCCCCCCCCCCCCCC(=O)O)C(=O)O)C(=O)O)CSCC(=O)N[C@@H](Cc2ccc(O)cc2)C(=O)N(C)[C@@H](C)C(=O)N[C@@H](CC(N)=O)C(=O)N(C)CC(=O)N[C@@H](CN)C(=O)N[C@@H](CC(C)C)C(=O)N2C[C@H](O)C[C@H]2C(=O)N[C@@H](Cc2c[nH]c3ccccc23)C(=O)N[C@@H](CCN)C(=O)N[C@@H](Cc2cn(CC(=O)NS(C)(=O)=O)c3ccccc23)C(=O)N1C [Example 2] ({CH2CO}-Y[NMeA]N[Sar][Dap]L[Hyp]W[Dab][Trp(1-CH2CONHSO2Me)][NMeNle][NMeNle]LCGD(X3)-OH; thioether N-14)
1.1 to 9	CCCC[C@H]1C(=O)N(C)[C@@H](CCCC)C(=O)N[C@@H](CC(C)C)C(=O)N[C@H](C(=O)NCC(=O)N[C@@H](CC(=O)NCCCOCCOCCOCCCNC(=O)CC[C@H](NC(=O)CCCCCCCCCCCCCCCCC(=O)O)C(=O)O)C(=O)O)CSCC(=O)N[C@@H](Cc2ccc(O)cc2)C(=O)N(C)[C@@H](C)C(=O)N[C@@H](CC(N)=O)C(=O)N2CCC[C@H]2C(=O)N[C@@H](CN)C(=O)N[C@@H](CC(C)C)C(=O)N2C[C@H](O)C[C@H]2C(=O)N[C@@H](Cc2c[nH]c3ccccc23)C(=O)N[C@@H](CCN)C(=O)N[C@@H](Cc2cn(CC(=O)O)c3cccnc23)C(=O)N1C [Example 7] ({CH2CO}-Y[NMeA]NP[Dap]L[Hyp]W[Dab][Trp(4-aza,1-CH2COOH)][NMeNle][NMeNle]LCGD(X3)-OH; thioether N-14)
1.1 to 9	CCCC[C@H]1C(=O)N(C)[C@@H](CCCC)C(=O)N[C@@H](CC(C)C)C(=O)N[C@H](C(=O)NCC(=O)N[C@@H](CC(=O)NCCCOCCOCCOCCCNC(=O)CC[C@H](NC(=O)CCCCCCCCCCCCCCC(=O)O)C(=O)O)C(=O)O)CSCC(=O)N[C@@H](Cc2ccc(O)cc2)C(=O)N(C)[C@@H](C)C(=O)N[C@@H](CC(N)=O)C(=O)N2CCC[C@H]2C(=O)N[C@@H](CN)C(=O)N[C@@H](CC(C)C)C(=O)N2C[C@H](O)C[C@H]2C(=O)N[C@@H](Cc2c[nH]c3ccccc23)C(=O)N[C@@H](CCN)C(=O)N[C@@H](Cc2cn(CC(=O)OC)c3ccccc23)C(=O)N1C [Example 16] ({CH2CO}-Y[NMeA]NP[Dap]L[Hyp]W[Dab][Trp(1-CH2CO2Me)][NMeNle][NMeNle]LCGD(X1)-OH; thioether N-14)
0.3 to 1	CCCC[C@H]1C(=O)N(C)[C@@H](CCCC)C(=O)N[C@@H](CC(C)C)C(=O)N[C@H](C(=O)NCC(=O)N[C@@H](Cc2cn(CCOCCOCCOCCOCCOCCOCCOCCOCCOCCOCCOCCNC(=O)CC[C@H](NC(=O)CCCCCCCCCCCCCCCCC(=O)O)C(=O)O)nn2)C(=O)O)CSCC(=O)N[C@@H](Cc2ccc(O)cc2)C(=O)N(C)[C@@H](C)C(=O)N[C@@H](CC(N)=O)C(=O)N2CCC[C@H]2C(=O)N[C@@H](CN)C(=O)N[C@@H](CC(C)C)C(=O)N2C[C@H](O)C[C@H]2C(=O)N[C@@H](Cc2c[nH]c3ccccc23)C(=O)N[C@@H](CCN)C(=O)N[C@@H](Cc2nn(CC(=O)OC)c3ccccc23)C(=O)N1C [Example 23]
1.1 to 9	CCCC[C@H]1C(=O)N(C)[C@@H](CCCC)C(=O)N[C@@H](CC(C)C)C(=O)N[C@H](C(=O)NCC(=O)N[C@@H](CC(=O)NCCCOCCOCCOCCCNC(=O)CC[C@H](NC(=O)CCCCCCCCCCCCCCC(=O)O)C(=O)O)C(=O)O)CSCC(=O)N[C@@H](Cc2ccc(O)cc2)C(=O)N(C)[C@@H](C)C(=O)N[C@@H](CC(N)=O)C(=O)N2CCC[C@H]2C(=O)N[C@@H](CN)C(=O)N[C@@H](CC(C)C)C(=O)N2C[C@H](O)C[C@H]2C(=O)N[C@@H](Cc2c[nH]c3ccccc23)C(=O)N[C@@H](CCN)C(=O)N[C@@H](Cc2cn(CC(=O)O)c3ccc(OC)cc23)C(=O)N1C [Example 21] ({CH2CO}-Y[NMeA]NP[Dap]L[Hyp]W[Dab][X6][NMeNle][NMeNle]LCGD(X1)-OH; thioether N-14)
10 to 60	CCCC[C@H]1C(=O)N(C)[C@@H](CCCC)C(=O)N[C@@H](CC(C)C)C(=O)N[C@H](C(=O)N[C@@H](Cc2cn(CCOCCOCCOCCOCCOCCOCCOCCOCCOCCOCCOCCNC(=O)CC[C@H](NC(=O)CCCCCCCCCCCCCCCCC(=O)O)C(=O)O)nn2)C(=O)O)CSCC(=O)N[C@@H](Cc2ccc(O)cc2)C(=O)N(C)[C@@H](C)C(=O)N[C@@H](CC(N)=O)C(=O)N2CCC[C@H]2C(=O)N[C@@H](CN)C(=O)N[C@@H](CC(C)C)C(=O)N2C[C@H](O)C[C@H]2C(=O)N[C@@H](Cc2c[nH]c3ccccc23)C(=O)N[C@@H](CCN)C(=O)NC(Cc2cn(CC(=O)O)c3ncccc23)C(=O)N1C (stereo partly shown) [Example 25]
1.1 to 9	CCCC[C@H]1C(=O)N(C)[C@@H](CCCC)C(=O)N[C@@H](CC(C)C)C(=O)N[C@H](C(=O)NCC(=O)NCCCOCCOCCOCCCNC(=O)CC[C@H](NC(=O)CCCCCCCCCCCCCCCCC(=O)O)C(=O)O)CSCC(=O)N[C@@H](Cc2ccc(O)cc2)C(=O)N(C)[C@@H](C)C(=O)N[C@@H](CC(N)=O)C(=O)N(C)CC(=O)N[C@@H](CN)C(=O)N[C@@H](CC(C)C)C(=O)N2C[C@H](O)C[C@H]2C(=O)N[C@@H](Cc2c[nH]c3ccccc23)C(=O)N[C@@H](CCN)C(=O)N[C@@H](Cc2cn(CC(=O)NS(C)(=O)=O)c3ccccc23)C(=O)N1C [Example 4] ({CH2CO}-Y[NMeA]N[Sar][Dap]L[Hyp]W[Dab][Trp(1-CH2CONHSO2Me)][NMeNle][NMeNle]LCG-X3; thioether N-14)
1.1 to 9	CCCC[C@H]1C(=O)N(C)[C@@H](CCCC)C(=O)N[C@@H](CC(C)C)C(=O)N[C@H](C(=O)NCC(=O)N[C@@H](CC(=O)NCCCOCCOCCOCCCNC(=O)CC[C@H](NC(=O)CCCCCCCCCCCCCCC(=O)O)C(=O)O)C(=O)O)CSCC(=O)N[C@@H](Cc2ccc(O)cc2)C(=O)N(C)[C@@H](C)C(=O)N[C@@H](CC(N)=O)C(=O)N2CCC[C@H]2C(=O)N[C@@H](CN)C(=O)N[C@@H](CC(C)C)C(=O)N2C[C@H](O)C[C@H]2C(=O)N[C@@H](Cc2c[nH]c3ccccc23)C(=O)N[C@@H](CCN)C(=O)N[C@@H](Cc2nn(CC(=O)O)c3ccccc23)C(=O)N1C [Example 17] ({CH2CO}-Y[NMeA]NP[Dap]L[Hyp]W[Dab][X4][NMeNle][NMeNle]LCGD(X1)-OH; thioether N-14)
